From patent US7582609B2, “Method for the treatment of skin fibrosis and suitable compositions for such treatment” (Digna Biotech, S.L., priority 2006, dated 2009)
Ends that are not written are not given here.

Test system: bleomycin-induced skin sclerosis
Conditions: mouse, in vivo
Experimental: Two emulsions or creams were prepared, an emulsion containing peptide P144 and a control emulsion with the vehicle for administration but without P144.
The control emulsion with the vehicle for administration was prepared by a procedure that starts with mixing of the components that are shown below in Table 2:
Next, this mixture was heated at 70° C. and was emulsified with 44.4 g of distilled water (also at 70° C.).
The emulsion containing the P144 was prepared as previously, except that the 44.4 g of water was replaced with a mixture of 44.28 g of water plus 0.010 g of P144 previously dissolved in 100 μl of dimethylsulphoxide.
The test was carried out using 6-week-old female C3H mice, supplied by Harlan SL (Spain). Development of skin sclerosis in the mice was induced by the administration of bleomycin (Sigma, Spain) dissolved in PBS at a concentration of 100 μg/ml and sterilized by filtration. The mice were injected with the bleomycin subcutaneously in the skin of the back, previously shaved, at daily doses of 100 μl of the solution in PBS injected with size 27 needles. […]
The thickness of the dermis was measured on the digitized images of the sections stained with haematoxylin and eosin, and then the percentage variation in thickness of the dermis was calculated relative to the mean of the values obtained for the mice treated with PBS, adjusted to 100%. […]

TSLDASIIWAMMQN [Peptide P144]
morphological changes in the epidermis: No changes were observed | signs of systemic toxicity: without signs of systemic toxicity
